Source: US20170189485A1, “MODULATION OF ESTROGEN RECEPTOR-RELATED RECEPTOR GAMMA (ERR GAMMA) AND USES THEREFOR” (Salk Institute for Biological Studies, priority 2011, published 2017)
“Also recorded” adds a separate entry of the source.

Assays:
ERRβ = biological target: T1, ERRβ (Homo sapiens, UniProt O95718); conditions: cited from earlier work
T1 sequence (O95718 1-433): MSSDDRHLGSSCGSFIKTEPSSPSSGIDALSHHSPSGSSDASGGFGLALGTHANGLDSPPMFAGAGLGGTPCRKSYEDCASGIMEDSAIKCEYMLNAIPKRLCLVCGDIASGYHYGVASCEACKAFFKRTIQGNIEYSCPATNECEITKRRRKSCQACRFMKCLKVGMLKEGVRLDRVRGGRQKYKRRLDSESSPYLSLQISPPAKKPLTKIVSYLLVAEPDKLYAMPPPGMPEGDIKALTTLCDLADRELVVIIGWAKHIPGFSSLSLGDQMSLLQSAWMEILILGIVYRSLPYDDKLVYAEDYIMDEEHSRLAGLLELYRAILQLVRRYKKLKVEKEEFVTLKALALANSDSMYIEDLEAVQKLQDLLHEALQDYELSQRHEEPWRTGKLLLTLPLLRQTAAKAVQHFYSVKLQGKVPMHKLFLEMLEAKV

ERRγ = biological target: T2, ERRγ (Homo sapiens, UniProt P62508); conditions: cited from earlier work
T2 sequence (P62508 1-458): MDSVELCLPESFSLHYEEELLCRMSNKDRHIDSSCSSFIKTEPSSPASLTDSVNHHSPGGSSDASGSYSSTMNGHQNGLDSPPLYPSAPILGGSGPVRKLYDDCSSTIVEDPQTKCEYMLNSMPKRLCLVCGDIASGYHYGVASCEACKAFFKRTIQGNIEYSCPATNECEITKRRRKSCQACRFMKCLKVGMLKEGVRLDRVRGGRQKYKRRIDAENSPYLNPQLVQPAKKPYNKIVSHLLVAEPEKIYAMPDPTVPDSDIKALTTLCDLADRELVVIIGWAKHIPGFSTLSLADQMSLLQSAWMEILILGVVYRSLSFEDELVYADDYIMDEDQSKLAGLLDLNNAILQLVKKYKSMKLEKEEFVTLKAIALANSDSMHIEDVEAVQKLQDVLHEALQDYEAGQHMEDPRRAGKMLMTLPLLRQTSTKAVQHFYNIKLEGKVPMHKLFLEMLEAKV

type II muscle = test: AICAR treatment of mice, SDH staining of muscle cryo-sections; format: in vivo; conditions: AICAR 500 mg/kg/day for 4 weeks, intra-peritoneally, male C57Bl/6J mice
Experimental: Drug treatment. Male C57Bl/6J mice (8 weeks old) were intra-peritoneally injected with vehicle or AICAR (500 mg/kg/day), as previously described (Narkar et al., 2008).
Succinate Dehydrogenase (SDH) Staining. SDH staining was performed on […] cryo-sections of gastrocnemius. Briefly, WT and transgenic sections were incubated at 37° C. for 10 min in substrate buffer [0.2M Phosphate buffer containing sodium succinate (250 mg/10 ml) and NBT (10 mg/10 ml)]. Following incubation, sections were washed three times with water following by two washes each with increasing and decreasing concentrations of acetone (30%, 60%, 90%). Finally, the sections were washed three times with water and mounted in an aqueous mounting media.

[1] = dose 500 mg/kg/day; cited from earlier work
AMPK = conditions: dose 500 mg/kg/day; cited from earlier work

For `CCN(CC)c1ccc(C=NNC(=O)c2ccc(O)cc2)cc1` (stereo in doubt) [GSK9089, N-[(E)-[4-(diethylamino)phenyl]methylideneamino]-4-hydroxybenzamide], the “agonist of ERRβ” value (ERRβ) is listed as “agonists” and the “agonist of ERRγ” value (ERRγ) is listed as “agonists”.
For `NC(=O)c1ncn([C@@H]2O[C@H](CO)[C@@H](O)[C@H]2O)c1N` [AICAR], the “aerobic transformation of skeletal muscle (SDH staining)” value (type II muscle) is listed as “able to direct aspects of skeletal muscle transformation in a fashion similar to ERRγ; also recorded: triggers aerobic transformation of type II muscle”, the aerobic performance [1] is listed as “improve aerobic performance” and the “stimulation of AMPK in anaerobic muscle” value (AMPK) is listed as “stimulate AMPK in anaerobic muscle”.
For `Nc1ccc(C(=O)N/N=C/c2ccc(/N=N/c3ccccc3)cc2)cn1` [E6], the “selectivity for ERRγ over ERRα and β” value (ERRγ; screening assay of Kim et al. 2009) is listed as “selective for ERRγ but not ERRα and β”.
For `CC(C)c1ccc(/C=N/NC(=O)c2ccc(O)cc2)cc1` [GSK4716], the “agonist of ERRβ” value (ERRβ) is given as “agonists”.
